Read-outs that look alike come from different tables or passages of the source.
Tested on: calcium channel (e.g., L-type, N-type, etc.) current
Test: HEK assay: whole-cell voltage clamp in transiently transfected HEK-293T/17 cells
Assay type: cell-based
Settings: patch clamp, holding potential −100 mV, steps to about +10 mV
Protocol: HEK-293T/17 cells are transiently transfected in a similar manner as described in FuGENE 6 Package Insert Version 7, April 2002, Roche Applied Science, Indianapolis, Ind. The cells are plated at 2.5×10^5 cells in 2 mL in a 6-well plate in incubator for one night and achieve a 30 40% confluence. In a small sterile tube, add sufficient serum-free medium as diluent for FuGENE Transfection Reagent (Roche Applied Science, Indianapolis, Ind.), to a total volume of 100 μL. Add 3 μL of FuGENE 6 Reagent directly into this medium. The mixture is tapped gently to mix. 2 μg of DNA solution (0.8-2.0 μg/μL) is added to the prediluted FuGENE 6 Reagent from above. The DNA/Fugene 6 mixture is gently pipeted to mix the contents and incubated for about 15 minutes at room temperature. The complex mixture is then added to the HEK-293T/17 cells, distributing it around the well, and swirled to ensure even dispersal. The cells are returned to the incubator for 24 hrs. The transfected cells are then replated at density 2.5×10^5 in a 35 mm dish with 5 glass coverslips and grow in low serum(1%) media for 24 hrs. Coverslips with isolated cells are then transferred into chamber and calcium channel ([…].) current or other currents for counter screening are recorded from the transiently transfected HEK-293T/17 cells. The whole-cell voltage clamp configuration of the patch clamp technique is employed to evaluate voltage-dependent calcium currents essentially as described by Thompson and Wong (1991) J. Physiol., 439: 671-689. […] Table 3 contains IC50's for representative compounds.

| IC50 (read-out: IC50) | SMILES | IC50 |
| --- | --- | --- |
| – | COc1ccccc1-c1nc(CCN(C)c2ccc(F)cc2)cn1-c1ccc(Cl)cc1 [Compound 1] | 46 nM |
| 990 nM | COc1ccccc1-c1nc(CCN2CCCC2)cn1-c1ccc(Cl)cc1 [Compound 6] | – |
| 173 nM | COc1ccccc1-c1nc(Cc2nc3ccccc3[nH]2)cn1-c1ccc(Cl)cc1 [Compound 2, 2-[1-(4-Chloro-phenyl)-2-(2-methoxy-phenyl)-1H-imidazol-4-ylmethyl]-1H-benzoimidazole] | – |

Reference: US20070197513A1, “Ion channel modulators” (priority 2004, published 2007)
